The term melting point denotes the temperature, or range, at which the solid turns liquid. For the compound `CC1=C(c2ccccc2)C(=O)N(C(C)(C)c2ccccc2)CC1`, the melting point fell in the range of 108 to 109 °C.
Compound `COc1ccc(C2CC(=O)N(Cc3ccc4ccc(Cl)cc4n3)C2)cc1OC1CCCC1` (stereo not given) had a melting point of 106 to 107 °C.
Compound `Nc1ncnc2c1c(-c1ccc(Oc3ccc(OCCO)cc3)cc1)cn2CCO` registered a melting point of 166 °C.
As for `CCCCCn1nc(-c2ccc(F)cc2)c(-c2ccc(S(C)(=O)=O)cc2)cc1=O`, the melting point lay in the range of 65 to 67 °C.
In the case of `CCOC(=O)c1nn(C)c(-c2ccccc2)c1S(N)(=O)=O`, the melting point was 141 to 144 °C.
`CCC(=O)N(c1ccncc1)c1c[nH]c2ccccc12` displayed a melting point of 166 to 168 °C.
Regarding `CS(=O)(=O)Nc1ccc(C(=O)C2CCN(CCc3cnc4ccccc4n3)CC2)cc1`, the melting point was 156 to 157 °C.
Take `CS(=O)(=O)c1ccc(-c2oc(C(=O)O)cc(=O)c2-c2ccc(Cl)cc2)cc1`: the melting point amounted to 236 °C.
In turn, `Brc1cnc(SCc2ccccc2)nc1` yielded a melting point of 68 to 69 °C.
With `Cn1cnnc1C(O)(c1ccc(Cl)cc1)c1cc2c3c(c1)c(-c1cccc(Cl)c1)cc(=O)n3CCC2` (stereo not given), the melting point was determined as 183 °C.
Compound `CSc1ccc(N(C)S(=O)(=O)c2ccc(C)cc2)c(C#N)c1` yielded a melting point of 139 to 140 °C.
As for `O=C(Cn1c(=O)sc2ccc(Cl)cc21)N1CCC(O)CC1`, the melting point came to 180 °C.
`C=CCOc1ccccc1S(N)(=O)=O` had a melting point of 104 to 105 °C.
As for `COc1nc(Cl)nc(N)c1-c1ccccc1`, the melting point came out at 213 °C.
As to `COc1cccc2c(=O)sc(C(=O)O)cc12`, the melting point was 283 to 284 °C.
Consider `Cn1nc(-c2c(F)cccc2Cl)nc1-c1ccc(OCc2ccc(C(F)(F)F)cc2Cl)c(Cl)c1`, for which the melting point fell in the range of 156 to 159 °C.
Consider `O=C(c1ccccc1)c1[nH]c2cc(Cl)ccc2c1CC(=O)N1CCCCC1`, for which the melting point lay within 223 to 224 °C.
Regarding `CC(=O)N1OC(C)C(=S)NC1c1ccccc1C` (stereo not given), the melting point fell in the range of 167 to 170 °C.
Compound `O=C(CN1CCN(c2ccc(C(=O)O)cc2)CC1)Nc1ccc(Cl)cc1` had a melting point of 263 to 265 °C.
As for `CCN(C(=O)C1CC1)c1cccc(-c2ccnc3c(Cl)cnn23)c1`, the melting point was 150 to 151 °C.
The result for `Cc1oc(-c2ccc(F)cc2)nc1COc1cccc(CN(O)C(N)=O)c1` reads 156 to 157 °C.
As for `CC1CN(c2c(F)cc3c(=O)c(C(=O)O)cn(C4CC4)c3c2Cl)CC1NC(=O)OC(C)(C)C` (stereo not given), the figure is 210 to 213 °C; as for `CCCC(CCC)c1ccc(CN(C)c2ccc(-c3coc(CN(CC(=O)O)Cc4ccccc4)n3)cc2)cc1`, 129 to 131 °C; as for `COCc1cn(Cc2ccccc2)c(=O)[nH]c1=O`, 134 to 136 °C.
The compound `CCOC(=O)Nc1c(C(=O)c2cccc(C)c2)[nH]c2cc(Cl)ccc12` displayed a melting point of 154 to 157 °C.
In turn, `N=C(c1ccccc1)c1cc(Cl)ccc1O` registered a melting point of 129 to 131 °C.
Take `C#CCNC(=O)N1CC(Oc2ccc(Br)cc2)C1`: the melting point was 120 to 122 °C.
The result for `CCCCNC(=O)c1cn2nc(N3CCN(C(=O)c4ccccc4C(F)(F)F)CC3)ccc2n1` reads 187 to 189 °C; that for `Cc1nnc2cc(-c3ccccc3)c3cc(Cl)ccc3n12`, 254 to 255 °C; that for `Clc1nc(-c2ccccc2)nc2c1Cc1ccccc1O2`, 168 to 170 °C.
Take `COc1ccc2c(c1)N(C)C(=O)C2(C)C`: the melting point lay within 67 to 69 °C.
On to `Cn1cc(-c2cc(-c3ccc(N)nc3)ccn2)n(-c2ccc(C(C)(C)C#N)cc2)c1=O`, for which the melting point is 252 °C.
`CC12CCC3c4cc(OCC(F)(F)F)c(O)cc4C(=NO)CC3C1CCC2O` (stereo not given) had a melting point of 187 to 191 °C.
As for `O=C1CCC(N2C(=O)c3cccc(OCc4cc5ccccc5s4)c3C2=O)C(=O)N1` (stereo not given), the melting point was in the range of 247 to 249 °C.
Consider `N#Cc1cc(C(F)(F)F)cc(Cl)c1N1CN(Br)C(C(F)(F)F)=CC1=O`, for which the melting point was in the range of 166 to 167 °C.

Values taken from a melting point compilation (Tetko et al.; mined from patent text by program, amines drawn as free bases though some values may be those of a salt).
